In patent US20220267374A1, “IMMUNITY INDUCER AND PHARMACEUTICAL COMPOSITION FOR PREVENTING OR TREATING AGING-RELATED DISEASES” (priority 2019, published 2022):
Ends that are not written are not given here.

What was measured:
[1] = Survival curve (Kaplan-Meier); format: in vivo, Zmpste24 KO mice; settings: normal diet, s.c. vaccination at 10 weeks of age; regardless of gender; FIG. 2M
Procedure: In addition, Zmpste24-deficient (KO) mice (model of Hutchinson-Gilford progeria syndrome, MGI: 2158363) were used as a model of premature aging mice. Generation and genotyping of Zmpste24 KO mice followed the previous report (http://www.informatics.jax.org/allele/MGI:2158363).
Zmpste24 KO mice were bred on normal diet. For some Zmpste24 KO mice, peptide vaccine 1 was administered by subcutaneous injection at a time point of 10 weeks of age (about 50 weeks of age in C57BL/6 mice). Survival curves were calculated by the Kaplan-Meier method and compared by a log-rank test (refer to FIG. 2M).

GPNMB-positive cells = experiment: Gpnmb-dependent luciferase activity in the aorta; format: in vivo, ApoE/Gpnmb-DTR mice; settings: HFD from 4 to 16 weeks of age, s.c. vaccination at 8 weeks of age; vs control vaccine; FIG. 2J
Procedure: Gpnmb-DTR mouse bred by feeding normal diet or HFD for 4 weeks, and Gpnmb-DTR mouse bred by feeding HFD for 4 weeks, and then injecting DT (50 μg/kg body weight) at 2-week intervals (12 weeks of age and 14 weeks of age) intraperitoneally twice while continuing to feed HFD (16 weeks of age) were subjected to in vivo luciferase imaging analysis using the IVIS imaging system (Perkin Elmer). Mice were shaved ventrally, anesthetized with isoflurane (Wako Pure Chemicals Industries), and injected intraperitoneally with luciferin (150 mg/kg body weight) according to the manufacturer's instructions (Vivo-Glo; Promega). Luciferase activity was monitored 5 minutes after luciferin administration. Signals were analyzed using Living Image software (Perkin Elmer) to quantify luciferase activity. […]
Detection of arteriosclerotic plaque and analysis of Gpnmb-dependent luciferase activity were performed using the same method as in “6.” and “2.” of Reference Example 1, except that ApoE/Gpnmb-DTR mice (16 weeks of age) bred while feeding HFD for 12 weeks from 4 to 16 weeks of age and administered with peptide vaccine 1 or a control vaccine by subcutaneous injection at a time point of 8 weeks of age were used (refer to FIG. 2J). The Oil Red O stained region was quantified by Image-J software (refer to FIG. 2K). […]

Open field test = format: in vivo, C57BL/6 mice; settings: normal diet, s.c. vaccination at 50 weeks of age; vs control vaccine; FIG. 2L
Procedure: C57BL/6 mice bred by feeding a normal diet and administered with peptide vaccine 1 or a control vaccine by subcutaneous injection at a time point of 50 weeks of age were used. Open field tests were performed before and after vaccination (50 and 70 weeks of age). The open field test is a test that measures voluntary activity in a novel environment. Each mouse was placed in an open field and tested for 6 minutes. The total action time (seconds) and average speed (cm/sec) of each mouse during the test were measured. The difference between the measurement results at 50 weeks of age and the measurement results at 70 weeks of age is shown in FIG. 2L. In FIG. 2L, “Cont vac” is a C57BL/6 mouse administered with the control vaccine, and “Gpnmb vac” is a C57BL/6 mouse administered with the peptide vaccine 1.

p19^Arf = experiment: Analysis of p19Arf-dependent luciferase activity; format: in vivo, p19^Arf-DTR-Luc mouse; settings: HFD-fed p19Arf-DTR-Luc mouse, 21 weeks of age, s.c. vaccination at 13 weeks of age; vs control vaccine; FIG. 2F
GPNMB protein = experiment: Antibody titer by ELISA in plasma of vaccinated mice; format: in vivo, C57BL/6 mice; settings: vs control vaccine group; KLH-bound peptide 20 μg with Titer Max Gold s.c. at 8 weeks of age, HFD-fed mice; plasma up to 6 weeks; FIG. 2A
Procedure: First, the antibody titers of the obtained two peptide vaccines were examined. Peptide vaccine 1 or peptide vaccine 2 (20 μg) and Titer Max Gold adjuvant (Titer Max USA) conjugated with KLH as carrier protein for induction of cytotoxic antibody were mixed in two syringes according to the manufacturer's protocol for emulsification. Subsequently, eight-week-old C57BL/6 mice fed with HFD from 4 weeks of age were subcutaneously injected with KLH-binding antigen peptide (20 μg) with a Titer Max Gold adjuvant to induce cytotoxic antibodies. C57BL/6 mice in the control group were subcutaneously injected with a KLH solution (hereinafter, referred to as “control vaccine”) mixed with Titer Max Gold in an equal amount. Plasma was collected from the tail vein of each mouse immediately after administration of the peptide vaccine and after 2, 4, and 6 weeks for antibody titer analysis. The antibody titer produced by injection of each peptide was measured by ELISA. Specifically, first, a 96-well microtiter plate (Nunc-Immuno MicroWell 96-well solid plate, Thermo Scientific) was coated using a carbonate buffer containing peptide vaccine 1 or peptide vaccine 2 bonded to bovine serum albumin (BSA). […] After reacting with the TMB substrate (Sigma-Aldrich, T0440), the optical density was measured at 450 nm (0D450) using a microtiter plate reader (iMark microplate reader, Bio-Rad).

RRGDGRWKD (also: KLH conjugate; listed as Mus musculus) [peptide vaccine 1, peptide of positions 63 to 71 of mouse GPNMB protein]
lifespan (survival curve) [1]: extended | Gpnmb-dependent luciferase activity in the aorta (GPNMB-positive cells): decreased | results in the open field test (total action time, average speed; difference 50 vs 70 weeks of age) (Open field test): significantly improved | p19Arf-dependent luciferase activity in visceral adipose tissue (p19^Arf): decrease | antibody titer against GPNMB protein (GPNMB protein): significantly higher
